One compound from patent publication US20250281560A1, “METHOD FOR PREVENTING AND/OR TREATING CANCER OR AUTOIMMUNE DISEASE WITH 3,4,2 Prime,3 Prime,4 Prime-PENTAHYDROXY-TRANS-CHALCONE” (priority 2024, published 2025) can be followed below.

The target in assay [1] is T1, human ornithine decarboxylase (ODC) (Homo sapiens, UniProt P11926).
T1 sequence (P11926 1-461): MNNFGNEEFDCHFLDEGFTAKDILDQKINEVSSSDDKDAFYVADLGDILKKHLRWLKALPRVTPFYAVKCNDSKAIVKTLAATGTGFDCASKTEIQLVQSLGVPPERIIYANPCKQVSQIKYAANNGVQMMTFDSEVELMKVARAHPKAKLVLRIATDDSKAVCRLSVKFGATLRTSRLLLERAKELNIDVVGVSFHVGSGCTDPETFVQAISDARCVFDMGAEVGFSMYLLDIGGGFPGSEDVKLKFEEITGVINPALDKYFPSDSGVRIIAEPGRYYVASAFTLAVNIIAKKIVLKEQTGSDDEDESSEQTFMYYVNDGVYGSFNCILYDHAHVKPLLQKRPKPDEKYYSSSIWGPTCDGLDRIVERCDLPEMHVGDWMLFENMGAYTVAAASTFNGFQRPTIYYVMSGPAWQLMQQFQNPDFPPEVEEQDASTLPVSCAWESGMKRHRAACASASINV
The assay is described as follows: Inhibition of the activity of human ornithine decarboxylase by continuous spectrophotometry. The format is biochemical. Conditions: isolated component, FIG. 9. As to the method:
In this example, inhibition of the activity of human ornithine decarboxylase (ODC) was tested by continuous spectrophotometry. The standard ODC spectrophotometric reaction composition contained 30 mM Tris-HCl (pH 7.8), 10 mM ornithine, and 0.2 mM pyridoxal 5′-phosphate (PLP), together with 12.5 mM phosphoenolpyruvate, 0.4 unit/mL […] of microbes, 4.1 unit/mL malate dehydrogenase (malate dehydrogenase of mammals), and 0.6 mM NADH analog, with the final volume being 0.5 mL. The test mixture was added with a predetermined amount of an Acacia confusa extract sample as an inhibitor and then added with an appropriate amount of ODC to start the reaction. Once the enzyme ODC was added into the reaction mixture, the decrease in absorbance at 405 nm was continuously tracked with Lambda 25 UV-visible spectrophotometer (PerkinElmer Life Sciences). By this test method, 1 mole of CO2 was generated under the test conditions, and 1 mole of NADH analog was oxidized. The unit of the enzyme ODC was defined as the amount of the enzyme that is required to catalyze the generation of 1 mole of NAD per minute. For the calculation, 2410 M^−1cm^−1 was used as the molar absorptivity of the NADH analog. […]

The target in assay [2] is human peptidylarginine deiminase 4 (PAD4) (Homo sapiens, UniProt Q9UM07). The assay is described as follows: Inhibition of the activity of human peptidylarginine deiminase 4 by continuous spectrophotometry. Format: biochemical. Conditions: human PAD4, isolated component, FIG. 10. The method, then: In this example, inhibition of the activity of human peptidylarginine deiminase 4 (PAD4) was tested by continuous spectrophotometry. The standard PAD4 spectrophotometric reaction mixture contained 10 mM BAEE (benzoyl-L-arginine ethyl ester), 10 mM CaCl2), 2.5 mM dithiothreitol (DTT), 8.5 mM α-ketoglutarate (α-KG), 0.22 mM NADH, and 3 U glutamate dehydrogenase (GDH). 100 mM Tris-HCl (pH 7.5) was added into a 1-mL colorimetric tube, followed by a predetermined amount of an Acacia confusa extract sample as an inhibitor. The temperature was controlled at 37° C. An appropriate amount of PAD4 was then added into the test mixture to start the reaction. Once the enzyme PAD4 was added into the reaction mixture, the decrease in absorbance at 340 nm was continuously recorded with a spectrophotometer (Beckman DU 7500). The unit of the enzyme PAD4 was defined as the amount reduced in order to catalyze the conversion of 1 μmol of NADH to NAD^+ per minute. For the calculation of enzyme activity, 6220 M^−1cm^−1 was used as the molar absorptivity of the NADH.
Chain of human peptidylarginine deiminase 4 (PAD4) (Q9UM07 whole entry): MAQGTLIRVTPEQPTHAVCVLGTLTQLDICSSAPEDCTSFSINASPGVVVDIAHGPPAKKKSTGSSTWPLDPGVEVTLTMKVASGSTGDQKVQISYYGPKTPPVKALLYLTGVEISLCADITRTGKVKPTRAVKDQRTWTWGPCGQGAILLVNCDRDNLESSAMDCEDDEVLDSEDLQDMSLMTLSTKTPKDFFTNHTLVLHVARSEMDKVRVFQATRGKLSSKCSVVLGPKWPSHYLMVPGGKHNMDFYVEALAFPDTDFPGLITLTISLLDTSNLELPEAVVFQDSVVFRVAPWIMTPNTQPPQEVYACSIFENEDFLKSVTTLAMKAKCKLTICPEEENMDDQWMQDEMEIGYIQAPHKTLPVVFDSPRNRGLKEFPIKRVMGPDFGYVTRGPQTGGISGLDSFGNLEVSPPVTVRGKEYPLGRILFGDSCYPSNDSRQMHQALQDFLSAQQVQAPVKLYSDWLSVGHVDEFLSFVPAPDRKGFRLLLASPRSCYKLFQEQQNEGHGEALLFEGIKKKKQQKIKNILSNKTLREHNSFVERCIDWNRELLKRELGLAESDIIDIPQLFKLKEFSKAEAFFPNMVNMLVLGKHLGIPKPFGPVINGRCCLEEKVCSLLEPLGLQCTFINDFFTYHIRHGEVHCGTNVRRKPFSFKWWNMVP
Referring to the content of Example 3 to detect the inhibiting activity of peptidylarginine deiminase 4 (PAD4) of components of the Acacia confusa ethyl acetate extract: Melanoxetin, Okanin and Transilitin, the results are shown in FIG. 10.

Each structure is given as a SMILES string.

For `O=C(/C=C/c1ccc(O)c(O)c1)c1ccc(O)c(O)c1O` [Okanin, 3,4,2′,3′,4′-pentahydroxy-trans-chalcone], the IC50 in assay [1] turned out to be 8.2 ± 2.1 µM; in assay [2] it was 89.2 ± 8.3 µM.

What is called IC50 is the midpoint of a concentration-inhibition curve. Read a low IC50 as greater potency in that assay.
